# Read-outs that look alike come from different tables or passages of the source.
# Tests used:
# [1] = test system: short-term antigen-specific T cell lines generated from PBMCs; parameters: key: +: ELISPOT: Immungenicity of the peptide shown by IFN-gamma ELISPOT analysis; * Highlights data from published resources; +*: * Highlights data from published resources; conditions: marked * (published resources), cited from earlier work
# [2] = test system: short-term antigen-specific T cell lines generated from PBMCs; assay: Interferon-γ ELISpot assay on short-term T cell lines; format: cell-based, human; parameters: key: +: ELISPOT: Immungenicity of the peptide shown by IFN-gamma ELISPOT analysis; * Highlights data from published resources; +*: * Highlights data from published resources
# [3] = test system: peptide-specific T cell cultures; assay: T cell phenotyping and intracellular cytokine staining (flow cytometry); format: cell-based, human; parameters: key: +: cytokine: Immunogenicity of the peptide shown by intracellular cytokine staining (IFN-gamma, TNF-alpha); conditions: IFN-gamma, TNF-alpha
Substance,ELISpot ([1]; HLA restriction A11),ELISpot ([2]; HLA restriction A03),cytokine ([3]; HLA restriction A03),cytokine ([3]; HLA restriction A11),cytokine ([3]; HLA restriction B15),ELISpot ([2]; HLA restriction B15),ELISpot ([1]; HLA restriction B07),ELISpot ([1]; HLA restriction B15)
34 (CVYCKQQLLR; Human papillomavirus 16) [compound 34],*,+,–,–,–,–,–,–
43 (AVCDKCLKFY; Human papillomavirus 16) [compound 43],+*,+,+,+,+,+,–,–
61 (RAHYNIVTF; Human papillomavirus 16) [compound 61],–,–,–,–,–,+,+*,–
87 (LQPETTDLY; Human papillomavirus 16) [compound 87],–,–,–,–,+,–,–,+*

# Reference: patent publication US20260240975A1, “VALIDATED HPV16-DERIVED S[…]” (Deutsches Krebsforschungszentrum Stiftung des öffentlichen …, priority 2023, published 2026)
